Measured values: patent publication US20230072683A1, “PYRIDO-PYRIMIDIN DERIVATIVES AND PHARMACEUTICAL COMPOSITION, FOR USE IN PREVENTING OR TREATING PI3 KINASE RELATED DISEASES, COMPRISING SAME AS ACTIVE INGREDIENT” (BORYUNG PHARMACEUTICAL CO., LTD, priority 2019, published 2023)
Where two headings read alike, the source gives them in different places. Values belong to the molecule of their own block, whether it stands above or below them.

Experiments:
[1] = molecular target: PI3K-δ (PI3K(p1108/p857) (h)) (Homo sapiens, UniProt O00329); experiment: Evaluation of inhibitory activity against PI3K-δ (HTRF kinase assay); assay type: biochemical; settings: for inhibition at 0.01 µM: compound concentration 0.01 μM, read-out: EXP_VALUE(% Inhibition) PI3K-δ 0.01 μM; for inhibition at 0.1 µM: read-out: EXP_VALUE(% Inhibition) PI3K-δ 0.1 μM
Sequence of PI3K-δ (PI3K(p1108/p857) (h)) (O00329 whole entry, the tested form may be a part): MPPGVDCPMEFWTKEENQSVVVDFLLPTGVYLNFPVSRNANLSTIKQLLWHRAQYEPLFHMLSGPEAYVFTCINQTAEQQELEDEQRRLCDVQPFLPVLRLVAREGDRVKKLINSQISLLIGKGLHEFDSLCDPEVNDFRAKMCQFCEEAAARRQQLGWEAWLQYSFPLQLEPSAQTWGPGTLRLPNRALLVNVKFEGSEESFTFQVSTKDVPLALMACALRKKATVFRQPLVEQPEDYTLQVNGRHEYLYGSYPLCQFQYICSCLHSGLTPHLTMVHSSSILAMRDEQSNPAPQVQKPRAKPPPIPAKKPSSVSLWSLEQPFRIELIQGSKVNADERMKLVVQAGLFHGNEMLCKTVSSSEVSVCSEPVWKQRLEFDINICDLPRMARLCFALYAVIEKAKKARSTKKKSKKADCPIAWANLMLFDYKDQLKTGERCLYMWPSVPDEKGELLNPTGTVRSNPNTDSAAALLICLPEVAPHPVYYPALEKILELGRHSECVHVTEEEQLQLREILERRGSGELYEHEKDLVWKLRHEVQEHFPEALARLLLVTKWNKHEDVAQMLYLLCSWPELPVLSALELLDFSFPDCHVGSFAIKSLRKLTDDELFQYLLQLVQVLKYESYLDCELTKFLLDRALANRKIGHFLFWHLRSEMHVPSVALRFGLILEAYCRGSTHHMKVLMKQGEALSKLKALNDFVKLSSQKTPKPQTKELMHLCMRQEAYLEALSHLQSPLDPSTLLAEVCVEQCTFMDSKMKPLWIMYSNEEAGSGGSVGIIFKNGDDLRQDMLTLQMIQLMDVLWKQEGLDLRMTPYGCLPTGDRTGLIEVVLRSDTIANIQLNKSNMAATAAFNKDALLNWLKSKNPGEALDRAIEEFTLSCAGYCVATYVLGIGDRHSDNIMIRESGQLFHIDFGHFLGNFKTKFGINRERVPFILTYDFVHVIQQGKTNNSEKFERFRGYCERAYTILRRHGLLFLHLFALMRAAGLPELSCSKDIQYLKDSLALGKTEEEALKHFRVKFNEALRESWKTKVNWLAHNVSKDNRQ
Sequence of PI3K-δ (PI3K(p1108/p857) (h)) (P27986 whole entry partner, the tested form may be a part): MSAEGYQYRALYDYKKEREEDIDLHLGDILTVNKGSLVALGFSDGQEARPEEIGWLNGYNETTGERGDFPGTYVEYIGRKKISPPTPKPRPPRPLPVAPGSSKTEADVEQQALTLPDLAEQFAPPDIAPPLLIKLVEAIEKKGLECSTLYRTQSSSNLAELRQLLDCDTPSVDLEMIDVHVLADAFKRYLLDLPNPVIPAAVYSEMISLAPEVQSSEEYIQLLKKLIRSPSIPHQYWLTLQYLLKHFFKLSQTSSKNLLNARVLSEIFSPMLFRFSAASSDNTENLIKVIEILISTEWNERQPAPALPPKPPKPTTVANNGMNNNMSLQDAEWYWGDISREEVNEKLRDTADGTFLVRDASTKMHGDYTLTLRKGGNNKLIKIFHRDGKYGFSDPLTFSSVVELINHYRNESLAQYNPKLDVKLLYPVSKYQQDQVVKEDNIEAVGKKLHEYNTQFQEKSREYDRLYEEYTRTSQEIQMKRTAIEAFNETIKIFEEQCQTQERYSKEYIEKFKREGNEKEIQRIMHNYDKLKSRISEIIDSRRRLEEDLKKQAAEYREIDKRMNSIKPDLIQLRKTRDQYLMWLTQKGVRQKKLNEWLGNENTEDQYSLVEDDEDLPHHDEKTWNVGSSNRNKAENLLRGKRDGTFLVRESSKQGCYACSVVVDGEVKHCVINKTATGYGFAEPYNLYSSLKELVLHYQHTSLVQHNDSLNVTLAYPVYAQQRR
How it was run: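 HTRF read-out (665/620 nm ratio ×10000) used Eu-labelled anti-GST, GST-tagged GRP1 PH domain and streptavidin-allophycocyanin after EDTA/PIP3 stop.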

DNA-PK(h) = DNA-PK(h) (Homo sapiens, UniProt P78527); experiment: Evaluation of inhibitory activity against DNA-PK (HTRF kinase assay, GST-cMyc-p53 substrate); assay type: biochemical; settings: for inhibition at 0.01 µM: compound concentration 0.01 μM, read-out: EXP_VALUE(% Inhibition) DNA-PK(h) 0.01 μM; for inhibition at 0.1 µM: read-out: EXP_VALUE(% Inhibition) DNA-PK(h) 0.1 μM
How it was run: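 Human DNA-PK with 50 μM GST-cMyc-p53 substrate; reaction started with Mg/ATP, run 30 min at room temperature, stopped with EDTA. Phospho-Ser15 p53 detected by HTRF (Eu anti-phospho-Ser15, d2 anti-GST), signal = 10000×(Em 665/Em 620).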

SMILES: C[C@H](Nc1ncnc2[nH]ccc(=O)c12)c1c(Cl)c2cccc(N(C)Cc3ccccc3)c2c(=O)n1-c1ccccc1 [Example 319, (S)-4-((1-(8-(benzyl(methyl)amino)-4-chloro-1-oxo-2-phenyl-1,2-dihydroisoquinolin-3-yl)ethyl)amino)pyrido[2,3-d]pyrimidin-5(8H)-one]
inhibition at 0.01 µM [1]: 18%
inhibition at 0.1 µM ([1]; compound concentration 0.1 μM): 62%
inhibition at 0.01 µM (DNA-PK(h)): 7%
inhibition at 0.1 µM (DNA-PK(h); compound concentration 0.1 μM): 25%

SMILES: C[C@H](Nc1ncnc2[nH]ccc(=O)c12)c1c(Br)c2cccc(Cl)c2c(=O)n1-c1ccccc1 [Example 1, (S)-4-((1-(4-bromo-8-chloro-1-oxo-2-phenyl-1,2-dihydroisoquinolin-3-yl)ethyl)amino)pyrido[2,3-d]pyrimidin-5(8H)-one]
inhibition at 0.01 µM [1]: 105%
inhibition at 0.1 µM ([1]; compound concentration 0.1 μM): 104%
inhibition at 0.01 µM (DNA-PK(h)): 52%
inhibition at 0.1 µM (DNA-PK(h); compound concentration 0.1 μM): 91%

SMILES: C[C@H](Nc1ncnc2[nH]ccc(=O)c12)c1cc2cccc(-c3cccnc3)c2c(=O)n1-c1ccccc1 [Example 12, (S)-4-((1-(1-oxo-2-phenyl-8-(pyridin-3-yl)-1,2-dihydroisoquinolin-3-yl)ethyl)amino)pyrido[2,3-d]pyrimidin-5(8H)-one]
inhibition at 0.01 µM [1]: 102%
inhibition at 0.1 µM ([1]; compound concentration 0.1 μM): 114%
inhibition at 0.01 µM (DNA-PK(h)): 6%
inhibition at 0.1 µM (DNA-PK(h); compound concentration 0.1 μM): 21%

SMILES: Cc1ccc(-c2cccc3cc([C@H](C)Nc4ncnc5[nH]ccc(=O)c45)n(-c4ccccc4)c(=O)c23)cn1 [Example 13, (S)-4-((1-(8-(6-methylpyridin-3-yl)-1-oxo-2-phenyl-1,2-dihydroisoquinolin-3-yl)ethyl)amino)pyrido[2,3-d]pyrimidin-5(8H)-one]
inhibition at 0.01 µM [1]: 35%
inhibition at 0.1 µM ([1]; compound concentration 0.1 μM): 101%
inhibition at 0.01 µM (DNA-PK(h)): 3%
inhibition at 0.1 µM (DNA-PK(h); compound concentration 0.1 μM): 18%

SMILES: C[C@H](Nc1ncnc2[nH]ccc(=O)c12)c1c(Cl)c2cccc(NC3CCOC3)c2c(=O)n1-c1ccccc1 (stereo partly drawn) [Example 331, 4-(((1S)-1-(4-chloro-1-oxo-2-phenyl-8-((tetrahydrofuran-3-yl)amino)-1,2-dihydroisoquinolin-3-yl)ethyl)amino)pyrido[2,3-d]pyrimidin-5(8H)-one]
inhibition at 0.01 µM [1]: 24%
inhibition at 0.1 µM ([1]; compound concentration 0.1 μM): 74%
inhibition at 0.01 µM (DNA-PK(h)): 31%
inhibition at 0.1 µM (DNA-PK(h); compound concentration 0.1 μM): 76%

SMILES: C[C@H](Nc1ncnc2[nH]ccc(=O)c12)c1c(Cl)c2cccc(-c3ccc(-c4cccs4)cc3)c2c(=O)n1-c1ccccc1 [Example 93, (S)-4-((1-(4-chloro-1-oxo-2-phenyl-8-(4-(thiophen-2-yl)phenyl)-1,2-dihydroisoquinolin-3-yl)ethyl)amino)pyrido[2,3-d]pyrimidin-5(8H)-one]
inhibition at 0.01 µM [1]: 46%
inhibition at 0.1 µM ([1]; compound concentration 0.1 μM): 79%
inhibition at 0.01 µM (DNA-PK(h)): 13%
inhibition at 0.1 µM (DNA-PK(h); compound concentration 0.1 μM): 45%

SMILES: C[C@H](Nc1ncnc2[nH]ccc(=O)c12)c1c(Cl)c2cccc(N3CCC(N4CCCCC4)CC3)c2c(=O)n1-c1ccccc1 [Example 10, (S)-4-((1-(8-([1,4′-bipiperidin]-1′-yl)-4-chloro-1-oxo-2-phenyl-1,2-dihydroisoquinolin-3-yl)ethyl)amino)pyrido[2,3-d]pyrimidin-5(8H)-one]
inhibition at 0.01 µM [1]: 40%
inhibition at 0.1 µM ([1]; compound concentration 0.1 μM): 70%
inhibition at 0.01 µM (DNA-PK(h)): 15%
inhibition at 0.1 µM (DNA-PK(h); compound concentration 0.1 μM): 73%

SMILES: C[C@H](Nc1ncnc2[nH]ccc(=O)c12)c1c(Cl)c2cccc(N3CCc4ccccc43)c2c(=O)n1-c1ccccc1 [Example 341, (S)-4-((1-(4-chloro-8-(indolin-1-yl)-1-oxo-2-phenyl-1,2-dihydroisoquinolin-3-yl)ethyl)amino)pyrido[2,3-d]pyrimidin-5(8H)-one]
inhibition at 0.01 µM [1]: 62%
inhibition at 0.1 µM ([1]; compound concentration 0.1 μM): 91%
inhibition at 0.01 µM (DNA-PK(h)): 13%
inhibition at 0.1 µM (DNA-PK(h); compound concentration 0.1 μM): 56%

SMILES: C[C@H](Nc1ncnc2[nH]ccc(=O)c12)c1cc2cccc(-c3ccc(N(C)C)cc3)c2c(=O)n1-c1ccccc1 [Example 20, (S)-4-((1-(8-(4-(dimethylamino)phenyl)-1-oxo-2-phenyl-1,2-dihydroisoquinolin-3-yl)ethyl)amino)pyrido[2,3-d]pyrimidin-5(8H)-one]
inhibition at 0.01 µM [1]: 67%
inhibition at 0.1 µM ([1]; compound concentration 0.1 μM): 95%
inhibition at 0.01 µM (DNA-PK(h)): 3%
inhibition at 0.1 µM (DNA-PK(h); compound concentration 0.1 μM): 55%

The remaining lines, values ahead:

inhibition at 0.01 µM [1]: 31%
inhibition at 0.1 µM ([1]; compound concentration 0.1 μM): 84%
inhibition at 0.01 µM (DNA-PK(h)): 28%
inhibition at 0.1 µM (DNA-PK(h); compound concentration 0.1 μM): 65%
SMILES: COc1cccc2c(Cl)c([C@H](C)Nc3ncnc4[nH]ccc(=O)c34)n(-c3ccccc3)c(=O)c12 [Example 365, (S)-4-((1-(4-chloro-8-methoxy-1-oxo-2-phenyl-1,2-dihydroisoquinolin-3-yl)ethyl)amino)pyrido[2,3-d]pyrimidin-5(8H)-one]

inhibition at 0.01 µM [1]: 0%
inhibition at 0.01 µM (DNA-PK(h)): 2%
SMILES: C[C@H](Nc1ncnc2[nH]ccc(=O)c12)c1c(Cl)c2cccc(-c3ccc(C#N)cn3)c2c(=O)n1-c1ccccc1 [Example 31, (S)-6-(4-chloro-1-oxo-3-(1-((5-oxo-5,8-dihydropyrido[2,3-d]pyrimidin-4-yl)amino)ethyl)-2-phenyl-1,2-dihydroisoquinolin-8-yl) nicotinonitrile]

inhibition at 0.01 µM [1]: 101%
inhibition at 0.1 µM ([1]; compound concentration 0.1 μM): 105%
inhibition at 0.01 µM (DNA-PK(h)): 59%
inhibition at 0.1 µM (DNA-PK(h); compound concentration 0.1 μM): 97%
SMILES: Cc1cc(-c2cccc3c(Cl)c([C@H](C)Nc4ncnc5[nH]ccc(=O)c45)n(-c4ccccc4)c(=O)c23)ccc1F [Example 128, (S)-4-((1-(4-chloro-8-(4-fluoro-3-methylphenyl)-1-oxo-2-phenyl-1,2-dihydroisoquinolin-3-yl)ethyl)amino)pyrido[2,3-d]pyrimidin-5(8H)-one]

inhibition at 0.01 µM [1]: 73%
inhibition at 0.1 µM ([1]; compound concentration 0.1 μM): 101%
inhibition at 0.01 µM (DNA-PK(h)): 32%
inhibition at 0.1 µM (DNA-PK(h); compound concentration 0.1 μM): 91%
SMILES: C[C@H](Nc1ncnc2[nH]ccc(=O)c12)c1c(Cl)c2cccc(-c3ccc4c(ccn4C)c3)c2c(=O)n1-c1ccccc1 [Example 116, (S)-4-((1-(4-chloro-8-(1-methyl-1H-indol-5-yl)-1-oxo-2-phenyl-1,2-dihydroisoquinolin-3-yl)ethyl)amino)pyrido[2,3-d]pyrimidin-5(8H)-one]

inhibition at 0.1 µM ([1]; compound at 0.1 μM): 37%
inhibition at 0.1 µM (DNA-PK(h); compound at 0.1 μM): 36%
SMILES: C[C@H](Nc1ncnc2[nH]ccc(=O)c12)c1c(Cl)c2cccc(S(=O)(=O)c3ncccn3)c2c(=O)n1-c1ccccc1 [Example 420, (S)-4-((1-(4-chloro-1-oxo-2-phenyl-8-(pyrimidin-2-ylsulfonyl)-1,2-dihydroisoquinolin-3-yl)ethyl)amino)pyrido[2,3-d]pyrimidin-5(8H)-one]

inhibition at 0.01 µM [1]: 91%
inhibition at 0.1 µM ([1]; compound concentration 0.1 μM): 97%
inhibition at 0.01 µM (DNA-PK(h)): 63%
inhibition at 0.1 µM (DNA-PK(h); compound concentration 0.1 μM): 92%
SMILES: C[C@H](Nc1ncnc2[nH]ccc(=O)c12)c1c(Cl)c2cccc(-c3ccc(-c4nnc(N)s4)cc3)c2c(=O)n1-c1ccccc1 [Example 92, (S)-4-((1-(8-(4-(5-amino-1,3,4-thiadiazol-2-yl)phenyl)-4-chloro-1-oxo-2-phenyl-1,2-dihydroisoquinolin-3-yl)ethyl)amino)pyrido[2,3-d]pyrimidin-5(8H)-one]

inhibition at 0.01 µM [1]: 81%
inhibition at 0.01 µM (DNA-PK(h)): 78%
SMILES: C[C@H](Nc1ncnc2[nH]ccc(=O)c12)c1c(Cl)c2cccc(-c3cnc(N)nc3)c2c(=O)n1-c1ccccc1 [Example 56, (S)-4-((1-(8-(2-aminopyrimidin-5-yl)-4-chloro-1-oxo-2-phenyl-1,2-dihydroisoquinolin-3-yl)ethyl)amino)pyrido[2,3-d]pyrimidin-5(8H)-one]

inhibition at 0.01 µM [1]: 68%
inhibition at 0.01 µM (DNA-PK(h)): 58%
SMILES: C[C@H](Nc1ncnc2[nH]ccc(=O)c12)c1c(Cl)c2cccc(-c3cnc(C(C)(C)C)nc3)c2c(=O)n1-c1ccccc1 [Example 208, (S)-4-((1-(8-(2-(tert-butyl)pyrimidin-5-yl)-4-chloro-1-oxo-2-phenyl-1,2-dihydroisoquinolin-3-yl)ethyl)amino)pyrido[2,3-d]pyrimidin-5(8H)-one]

inhibition at 0.01 µM [1]: 84%
inhibition at 0.1 µM ([1]; compound concentration 0.1 μM): 94%
inhibition at 0.01 µM (DNA-PK(h)): 19%
inhibition at 0.1 µM (DNA-PK(h); compound concentration 0.1 μM): 62%
SMILES: C[C@H](Nc1ncnc2[nH]ccc(=O)c12)c1c(Cl)c2cccc(B(O)O)c2c(=O)n1-c1ccccc1 [Example 353, (S)-(4-chloro-1-oxo-3-(1-((5-oxo-5,8-dihydropyrido[2,3-d]pyrimidin-4-yl)amino)ethyl)-2-phenyl-1,2-dihydroisoquinolin-8-yl)boronic acid]

inhibition at 0.1 µM ([1]; compound at 0.1 μM): 9%
inhibition at 0.1 µM (DNA-PK(h); compound at 0.1 μM): 7%
SMILES: C[C@H](Nc1ncnc2[nH]ccc(=O)c12)c1c(Cl)c2cccc([S@](=N)(=O)c3ncccn3)c2c(=O)n1-c1ccccc1 [Example 421, 4-(((S)-1-(4-chloro-1-oxo-2-phenyl-8-((S)-pyrimidine-2-sulfonimidoyl)-1,2-dihydroisoquinolin-3-yl)ethyl)amino)pyrido[2,3-d]pyrimidin-5(8H)-one]

inhibition at 0.01 µM [1]: 79%
inhibition at 0.01 µM (DNA-PK(h)): 46%
SMILES: C[C@H](Nc1ncnc2[nH]ccc(=O)c12)c1c(Cl)c2cccc(-c3ccc4[nH]ncc4c3)c2c(=O)n1-c1ccccc1 [Example 236, (S)-4-((1-(4-chloro-8-(1H-indazol-5-yl)-1-oxo-2-phenyl-1,2-dihydroisoquinolin-3-yl)ethyl)amino)pyrido[2,3-d]pyrimidin-5(8H)-one]

inhibition at 0.01 µM [1]: 38%
inhibition at 0.01 µM (DNA-PK(h)): 10%
SMILES: C[C@H](Nc1ncnc2[nH]ccc(=O)c12)c1c(Cl)c2cccc(-c3cccc4cn[nH]c34)c2c(=O)n1-c1ccccc1 [Example 239, (S)-4-((1-(4-chloro-8-(1H-indazol-7-yl)-1-oxo-2-phenyl-1,2-dihydroisoquinolin-3-yl)ethyl)amino)pyrido[2,3-d]pyrimidin-5(8H)-one]
